According to ChEMBL document CHEMBL5036322 (J Med Chem, 2021):
In brackets after ≈: the same amount, converted by molar mass. Activity calls are given as the source filed them. The calls are words filed in the database; no cut-off is given here.

Columns and labels:
MV4-11 [1] = test: Antiproliferative activity against human MV4-11 cells assessed as reduction in cell viability measured after 3 days by CellTiter-Glo assay; type: functional, cell-based; details: for EC50: MV4-11, 72 h
MHHCALL4 = test: (§1) Antiproliferative activity against human MHHCALL4 cells harboring CRLF2-rearranged JAK2 mutation assessed as reduction in cell viability measured after 3 days by CellTiter-Glo assay; type: functional, cell-based; details: time 3.0 day
MB004 = test: (§2) Antiproliferative activity against human MB004 cells harboring TP53 mutation at codon 274 GTT-TGT assessed as reduction in cell viability measured after 3 days by CellTiter-Glo assay; type: functional, cell-based; details: time 3.0 day
HD-MB03 = test: (§3) Antiproliferative activity against human HD-MB03 cells assessed as reduction in cell viability measured after 3 days by CellTiter-Glo assay; type: functional, cell-based; details: time 3.0 day
[2] = Cytotoxicity against human PBMC assessed as reduction in cell viability
[3] = target: Protein cereblon/DNA damage-binding protein 1 (Homo sapiens, UniProt Q96SW2)
[4] = target: Protein cereblon/Eukaryotic peptide chain release factor GTP-binding subunit ERF3A (Homo sapiens, UniProt P15170+Q96SW2); test: PROTAC activity at human CRBN/HiBiT-fused GSPT1 transfected in HEK293T cells assessed as induction of GSPT1 degradation measured after 4 hrs by Nano-Glo HiBiT lytic assay; type: cell-based
[5] = Apparent permeability of the compound in dog MDCKII-MDR1 cells measured after 1 hr; type: ADME, cell-based, Canis lupus familiaris; details: mdck-mdr1, 1 h
[6] = as §1; type: functional, cell-based; details: MHHCALL4, 72 h
[7] = as §2; type: functional, cell-based; details: MB004, 72 h
[8] = as §3; type: functional, cell-based; details: HD-MB03, 72 h
MV4-11 [9] = test: Induction of apoptosis in human MV4-11 cells assessed as caspase activation at 10 to 100 nM measured after 8 hrs by luminescent Caspase-Glo assay; type: functional, cell-based; details: dose 10-100 nM
Homo sapiens = organism: Homo sapiens; test: Induction of His-tagged CRBN/DDB1/biotin-tagged IKZF1 (unknown origin) ternary complex formation incubated for 90 mins by AlphaScreen assay
[10] = Half life in CD-1 mouse liver microsomes measured upto 240 mins in presence of NADPH regenerating system by UHPLC-MS/MS analysis; type: ADME, Microsome; details: 4 h
[11] = Half life in human liver microsomes measured upto 240 mins in presence of NADPH regenerating system by UHPLC-MS/MS analysis; type: ADME, Microsome; details: 4 h
[12] = Protein binding in mouse plasma at 10 uM incubated for 4 hrs by UHPLC-MS/MS analysis; type: ADME, cell-free
[13] = Protein binding in human plasma at 10 uM incubated for 4 hrs by UHPLC-MS/MS analysis; type: ADME, cell-free
[14] = Aqueous solubility of the compound incubated for 18 hrs at pH 7.4 by UV spectrum based analysis; type: physicochemical
MV4-11 [15] = test: Antiproliferative activity against human MV4-11 cells assessed as reduction in cell viability measured after 3 days in presence of CRBN ligand, lenalidomide by CellTiter-Glo assay; type: functional, cell-based; details: time 3.0 day
MV4-11 [16] = test: Antiproliferative activity against CRBN knock-out human MV4-11 cells assessed as reduction in cell viability measured after 3 days by CellTiter-Glo assay; type: functional, cell-based; details: time 3.0 day
MV4-11 [17] = test: Antiproliferative activity against human MV4-11 cells transfected with FLAG-tagged GSPT1 G575N mutant assessed as reduction in cell viability measured after 3 days by CellTiter-Glo assay; type: functional, cell-based; details: time 3.0 day
MV4-11 [18] = test: PROTAC activity at CRBN/FLAG-tagged GSPT1 G575N mutant transfected in human MV4-11 cells assessed as induction of GSPT1 mutant degradation at 1 to 10 uM measured after 24 hrs by immunoblot analysis; type: cell-based; details: dose 1-10 µM
MV4-11 [19] = type: cell-based; details: Homo sapiens, dose 1-10 µM, time 24.0 hrs
MV4-11 [20] = test: PROTAC activity at CRBN/GSPT2 in human MV4-11 cells assessed as induction of GSPT2 degradation at 1 uM measured after 4 hrs by tandem mass tag mass spectrometry analysis; type: cell-based
MV4-11 [21] = test: PROTAC activity at CRBN/SERPINF1 in human MV4-11 cells assessed as induction of SERPINF1degradation at 1 uM measured after 4 hrs by tandem mass tag mass spectrometry analysis; type: cell-based
[22] = target: T1, Protein cereblon/Eukaryotic peptide chain release factor GTP-binding subunit ERF3A (Homo sapiens, UniProt Q96SW2+P15170); details: mhhcall4
Target sequence in this assay (Q96SW2 whole entry): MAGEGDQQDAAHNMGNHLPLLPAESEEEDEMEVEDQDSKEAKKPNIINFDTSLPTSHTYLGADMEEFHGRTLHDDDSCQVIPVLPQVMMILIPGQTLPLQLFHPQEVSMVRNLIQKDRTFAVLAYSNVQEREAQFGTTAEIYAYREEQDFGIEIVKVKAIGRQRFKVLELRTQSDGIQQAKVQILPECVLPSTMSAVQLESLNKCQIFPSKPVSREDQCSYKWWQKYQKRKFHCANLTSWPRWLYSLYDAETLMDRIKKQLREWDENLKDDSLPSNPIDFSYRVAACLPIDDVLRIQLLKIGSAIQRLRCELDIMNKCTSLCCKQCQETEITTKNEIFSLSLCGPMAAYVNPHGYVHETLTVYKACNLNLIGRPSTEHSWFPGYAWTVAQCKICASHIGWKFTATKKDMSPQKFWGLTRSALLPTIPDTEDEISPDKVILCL
Target sequence in this assay (P15170 whole entry): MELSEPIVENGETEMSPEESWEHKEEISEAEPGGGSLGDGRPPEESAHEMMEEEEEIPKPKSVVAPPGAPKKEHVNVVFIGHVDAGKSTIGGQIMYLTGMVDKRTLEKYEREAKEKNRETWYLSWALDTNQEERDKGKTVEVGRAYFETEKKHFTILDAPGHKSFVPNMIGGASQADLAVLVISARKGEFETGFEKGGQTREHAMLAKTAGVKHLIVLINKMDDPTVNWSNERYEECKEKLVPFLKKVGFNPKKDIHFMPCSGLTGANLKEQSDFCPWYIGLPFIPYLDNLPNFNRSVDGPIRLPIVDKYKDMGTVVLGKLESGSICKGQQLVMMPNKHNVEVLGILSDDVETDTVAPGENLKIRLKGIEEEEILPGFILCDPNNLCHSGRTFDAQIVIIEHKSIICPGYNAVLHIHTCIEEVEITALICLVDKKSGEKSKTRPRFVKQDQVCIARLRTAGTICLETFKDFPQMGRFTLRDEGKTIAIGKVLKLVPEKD

[23] = target: T1, Protein cereblon/Eukaryotic peptide chain release factor GTP-binding subunit ERF3A; details: MV4-11, dose 100.0 nM, time 4.0 hrs
Target sequence in this assay (P15170 whole entry, looked up): as the sequence (P15170 whole entry) above
Target sequence in this assay (Q96SW2 whole entry, looked up): as the sequence (Q96SW2 whole entry) above

MV4-11 [24] = test: Induction of apoptosis in human MV4-11 cells assessed as caspase activation at 10 to 100 nM measured after 24 hrs by luminescent Caspase-Glo assay; type: functional, cell-based; details: dose 10-100 nM
[25] = target: T1, Protein cereblon/Eukaryotic peptide chain release factor GTP-binding subunit ERF3A; details: MV4-11, dose 100.0 nM, time 24.0 hrs
Target sequence in this assay (P15170 whole entry, looked up): as the sequence (P15170 whole entry) above
Target sequence in this assay (Q96SW2 whole entry, looked up): as the sequence (Q96SW2 whole entry) above

Sequence of Protein cereblon/DNA damage-binding protein 1 (Q96SW2 whole entry, the tested form may be a part): as the sequence (Q96SW2 whole entry) above
Sequence of Protein cereblon/DNA damage-binding protein 1 (Q16531 whole entry, further chain, the tested form may be a part): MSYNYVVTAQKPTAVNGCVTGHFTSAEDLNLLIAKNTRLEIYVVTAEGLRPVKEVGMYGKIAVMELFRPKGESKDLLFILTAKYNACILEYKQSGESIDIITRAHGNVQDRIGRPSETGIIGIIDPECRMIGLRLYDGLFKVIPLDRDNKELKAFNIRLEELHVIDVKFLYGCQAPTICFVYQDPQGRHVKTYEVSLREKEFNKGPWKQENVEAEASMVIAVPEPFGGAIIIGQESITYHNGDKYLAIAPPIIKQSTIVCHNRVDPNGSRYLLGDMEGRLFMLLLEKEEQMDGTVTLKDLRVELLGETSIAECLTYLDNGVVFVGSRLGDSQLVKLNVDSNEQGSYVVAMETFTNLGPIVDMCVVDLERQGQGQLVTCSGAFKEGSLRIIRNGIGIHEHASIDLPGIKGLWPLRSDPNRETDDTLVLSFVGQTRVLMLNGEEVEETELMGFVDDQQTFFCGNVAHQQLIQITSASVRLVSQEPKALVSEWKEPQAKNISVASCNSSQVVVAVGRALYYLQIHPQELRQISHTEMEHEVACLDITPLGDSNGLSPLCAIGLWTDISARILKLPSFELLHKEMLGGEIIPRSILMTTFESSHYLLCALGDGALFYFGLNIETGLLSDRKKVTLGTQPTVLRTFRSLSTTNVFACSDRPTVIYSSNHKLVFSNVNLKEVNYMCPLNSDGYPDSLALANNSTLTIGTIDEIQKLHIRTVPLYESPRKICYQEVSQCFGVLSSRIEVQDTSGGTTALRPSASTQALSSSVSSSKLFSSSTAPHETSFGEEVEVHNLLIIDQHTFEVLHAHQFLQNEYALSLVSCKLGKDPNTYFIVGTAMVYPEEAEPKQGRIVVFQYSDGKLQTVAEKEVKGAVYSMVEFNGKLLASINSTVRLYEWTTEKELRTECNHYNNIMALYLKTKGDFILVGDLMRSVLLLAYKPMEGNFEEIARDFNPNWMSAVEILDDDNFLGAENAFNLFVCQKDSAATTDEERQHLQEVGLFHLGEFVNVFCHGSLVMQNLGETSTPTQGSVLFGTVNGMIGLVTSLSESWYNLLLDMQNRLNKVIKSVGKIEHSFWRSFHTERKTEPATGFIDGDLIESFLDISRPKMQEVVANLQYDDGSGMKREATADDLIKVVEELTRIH
Sequence of Protein cereblon/Eukaryotic peptide chain release factor GTP-binding subunit ERF3A (Homo sapiens, UniProt P15170+Q96SW2) (Q96SW2 whole entry, the tested form may be a part): as the sequence (Q96SW2 whole entry) above
Sequence of Protein cereblon/Eukaryotic peptide chain release factor GTP-binding subunit ERF3A (Homo sapiens, UniProt P15170+Q96SW2) (P15170 whole entry, the tested form may be a part): as the sequence (P15170 whole entry) above

Row | EC50 (MV4-11 [1]) [nM] | EC50 [4] [nM] | Papp [5] [×10⁻⁶ cm/s] | solubility at 18 h [14] [µM] | SMILES | Activity [2] | IC50 [3] [nM] | also measured
1 | – | – | – | – | Cc1ccc(NC(=O)NCc2ccc3c(c2)CN(C2CCC(=O)NC2=O)C3=O)cc1Cl (stereo not given) | Toxic | 18 | Activity (MV4-11 [1]; time 3.0 day): Active; Activity (MHHCALL4): Active; Activity (MB004): Active; Activity (HD-MB03): Active
2 | > 10000 | > 10000 | 4.6 | – | Cc1ccc(S(=O)(=O)Nc2ccc3c(c2)C(=O)N(C2CCC(=O)NC2=O)C3=O)cc1Cl (stereo not given) | – | 1 | –
3 | > 10000 | > 10000 | 3.6 | 71 (≈ 29.4 µg/mL) | O=C1CCC(N2C(=O)c3ccc(NS(=O)(=O)c4ccccc4)cc3C2=O)C(=O)N1 (stereo not given) | – | 3 | –
4 | 89 | 52 | 1.4 | 66 (≈ 31.8 µg/mL) | O=C1CCC(N2C(=O)c3ccc(NS(=O)(=O)c4ccccc4C(F)(F)F)cc3C2=O)C(=O)N1 (stereo not given) | – | 337 | –
5 | > 10000 | > 10000 | 1.1 | 76 (≈ 37.8 µg/mL) | O=C1CCC(N2C(=O)c3ccc(NS(=O)(=O)c4ccc(OC(F)(F)F)cc4)cc3C2=O)C(=O)N1 (stereo not given) | – | 9 | –
6 | 7400 | 9320 | 6.8 | 84 (≈ 35.9 µg/mL) | Cc1ccccc1S(=O)(=O)Nc1ccc2c(c1)C(=O)N(C1CCC(=O)NC1=O)C2=O (stereo not given) | – | 11 | –
7 | > 10000 | > 10000 | 1.7 | 74 (≈ 33.1 µg/mL) | O=C1CCC(N2C(=O)c3ccc(NS(=O)(=O)c4cccc(Cl)c4)cc3C2=O)C(=O)N1 (stereo not given) | – | 23 | –
8 | > 10000 | > 10000 | 0.6 | 85 (≈ 37.7 µg/mL) | COc1ccccc1S(=O)(=O)Nc1ccc2c(c1)C(=O)N(C1CCC(=O)NC1=O)C2=O (stereo not given) | – | 612 | –
9 | > 10000 | > 10000 | 4 | 64 (≈ 31.8 µg/mL) | O=C1CCC(N2C(=O)c3ccc(NS(=O)(=O)c4cccc(OC(F)(F)F)c4)cc3C2=O)C(=O)N1 (stereo not given) | – | 10 | –

Row | SMILES | EC50 (MV4-11 [1]) [nM] | EC50 [4] [nM] | Papp [5] [×10⁻⁶ cm/s] | solubility at 18 h [14] [µM] | Activity [2] | IC50 [3] [nM] | also measured
10 | O=C1CCC(N2C(=O)c3ccc(NS(=O)(=O)c4ccccc4OC(F)(F)F)cc3C2=O)C(=O)N1 (stereo not given) | 1.5 | – | 2.3 | 67 (≈ 33.3 µg/mL) | Toxic | – | EC50 [6]: 0.4 nM; EC50 [7]: 336 nM; EC50 [8]: 3580 nM; Activity (MV4-11 [9]): Active; Activity (Homo sapiens): inactive; t1/2 [10]: 4.7 h; t1/2 [11]: 5.7 h; PPB [12]: 99.3%; PPB [13]: 99.1%; Activity (MV4-11 [15]): inactive; Activity (MV4-11 [16]): inactive; Activity (MV4-11 [17]): inactive; Activity (MV4-11 [18]): inactive; Activity (MV4-11 [19]): inactive; Activity (MV4-11 [20]): Active; Activity (MV4-11 [21]): Active; DC50 [22]: Not Active; Emax [23]: 90%
11 | O=C1CCC(N2Cc3cc(CNC(=O)C(F)(F)c4ccc(Cl)cc4)ccc3C2=O)C(=O)N1 (stereo not given) | 62 | – | 4.9 | 77 (≈ 35.6 µg/mL) | Toxic | – | –
12 | Cc1c(Cl)cccc1S(=O)(=O)Nc1ccc2c(c1)C(=O)N(C1CCC(=O)NC1=O)C2=O (stereo not given) | – | – | 3.6 | 64 (≈ 29.6 µg/mL) | Toxic | – | EC50 [6]: 4.4 nM; EC50 [7]: 1100 nM; EC50 [8]: > 8000 nM; Activity (MV4-11 [24]): Active; Activity (Homo sapiens): inactive; Activity (MV4-11 [15]): inactive; Activity (MV4-11 [16]): inactive; Activity (MV4-11 [17]): inactive; Activity (MV4-11 [18]): inactive; Activity (MV4-11 [19]): inactive; Emax [25]: 90%
